Test results published in PMC5637892 (Journal of Peptide Science, 2017).
Positions of bridges follow the written chain, without caps; N, C: chain ends. Primed or numbered codes have the meaning given here. No end group written: not given here. *: point of attachment. PEG4′ = PEG4 spacer between biotin and the N-terminus; Biotin = O=C1N[C@H]2[C@H](CS[C@H]2CCCCC(=O)*)N1

What was measured:
[1] = test system: human IgG; assay: Immunoprecipitation with peptide-immobilized SA beads, human IgG; assay type: binding; details: biotinylated peptide on SA beads, shaken 1 h; SDS‐PAGE
[2] = test system: IgY; assay: Peptide-conjugated affinity column HPLC, IgY; assay type: binding, chicken; details: 0.1 M glycine‐HCl, pH 2.5 vs pH 3.0; IgY and IgY‐Fc
[3] = test system: IgY‐Fc; assay: Peptide-conjugated affinity column HPLC, IgY‐Fc; assay type: binding, chicken; details: for elution of IgY‐Fc from peptide column: 0.1 M glycine‐HCl, pH 2.5 vs pH 3.0, IgY and IgY‐Fc; for absorption of IgY‐Fc on peptide column: biotinylated peptide on HiTrap Streptavidin HP 1 mL, PBS wash
[4] = test system: human IgG; assay: Peptide-conjugated affinity column HPLC, human IgG; assay type: binding; details: biotinylated peptide on HiTrap Streptavidin HP 1 mL, PBS wash
[5] = target: Chicken egg yolk immunoglobulin (IgY) (chicken); assay: SPR

Row | Kd [5] | Molecule | recovery of hIgG by peptide beads [1] | elution of IgY from peptide column [2] | elution of IgY‐Fc from peptide column [3] | absorption of IgY‐Fc on peptide column [3] | human IgG on peptide column [4]
1 | – | GVKCTWSSIVDWVCVDM (disulfide 4-14 (inferred)) [Y4‐4] | hIgG was not | eluted from the column at pH 2.5 and 3.0, although the elution peaks at pH 2.5 were sharper than those at pH 3.0 | eluted from the column at pH 2.5 and 3.0, although the elution peaks at pH 2.5 were sharper than those at pH 3.0 | IgY and IgY‐Fc proteins were absorbed onto both columns | human IgG passed through both peptide‐immobilized columns
2 | – | RSVCVWTAVTGWDCRND (disulfide 4-14 (inferred)) [Y5‐55] | hIgG was not | eluted from the column at pH 2.5 and 3.0, although the elution peaks at pH 2.5 were sharper than those at pH 3.0 | eluted from the column at pH 2.5 and 3.0, although the elution peaks at pH 2.5 were sharper than those at pH 3.0 | IgY and IgY‐Fc proteins were absorbed onto both columns | human IgG passed through both peptide‐immobilized columns
3 | 7.3 µM | {Biotin-PEG4′}-GVKCTWSSIVDWVCVDM-NH2 (disulfide 4-14 (inferred)) [Y4‐4 synthetic peptide (biotinylated IgY‐binding peptide)] | – | – | – | – | –
4 | 4.4 µM | {Biotin-PEG4′}-RSVCVWTAVTGWDCRND-NH2 (disulfide 4-14 (inferred)) [Y5‐55 synthetic peptide (biotinylated IgY‐binding peptide)] | – | – | – | – | –
